Measured values from paper PMC7582876, “Antiproliferative Properties of a Few Auranofin-Related Gold(I) and Silver(I) Complexes in Leukemia Cells and their Interferences with the Ubiquitin Proteasome System” (Molecules, 2020).

What was measured:
[1] = test system: human cathepsin-L (Cat-L); experiment: Cathepsin-L inhibition screening; type: biochemical; details: over 10 min
Description: 20S proteasome, isolated and purified from human erythrocytes, was obtained from a commercial source (Biomol GmbH, Hamburg, Germany), as well as the peptidic substrates (Bachem, Bubendorf, Switzerland) Suc-Leu-Leu-Val-Tyr-AMC, Boc-Leu-Arg-Arg-AMC and Cbz-Leu-Leu-Glu-AMC for ChT-L, T-L and PGPH (C-L) activity of the enzyme, respectively. The three distinct proteolytic activities of the 20S proteasome were measured by monitoring the hydrolysis of the substrates and detecting the fluorescence of the common product released, i.e., 7-amino-4-methyl coumarin (7-AMC), by means of an Infinite 200 PRO microplate reader (Tecan, Männedorf, Switzerland) at 30 °C with a 380-nm excitation filter and a 460-nm emission filter. All gold and silver complexes were tested against the three proteolytic activities of the 20S proteasome and against Cat-B, Cat-L and bovine pancreatic α-chymotrypsin at 10 µM concentrations over a period of 10 min using an equivalent amount of DMSO as a negative control. […]. The IC50 values were calculated with the program GraFit® using the two-parameter equation. More detailed experimental protocols for the assays against each proteolytic activity of the 20S proteasome, as well as against bovine pancreatic α-chymotrypsin, are already reported elsewhere (see also Supplementary Materials). Cat-B and Cat-L were purchased from Calbiochem, Darmstadt, Germany, and the related assays were performed as previously described. The employed fluorogenic substrate for both cysteine proteases was Cbz-Phe-Arg-AMC (80 µM for Cat-B; 5 µM for Cat-L). […]
Assay for Cathepsin-B and Cathepsin-L Inhibition
Assays were performed at 25 °C in a 20 mM Tris-HCl buffer, pH 6.0, containing 5 mM
EDTA, 2.5 mM DTT, 200 mM NaCl, 0.005% Brij 35 in a total volume of 285 µL. Substrate
(Cbz-Phe-Arg-AMC for both enzymes) and inhibitor stock solutions were prepared in
DMSO (10% final concentration) and were diluted with assay buffer; enzymes were held
for CB (recombinant, human liver). Inhibitors were used at concentrations between 0.35
µM and 140 µM. Product release from substrate hydrolysis was determined over a period

CCRF-CEM cells = experiment: Resazurin cytotoxicity assay, drug-sensitive CCRF-CEM leukemia cells; type: cell-based, human; details: cell growth, 72 h incubation, IC50 ± SD, n = 3
Description: (§1) Drug-sensitive CCRF-CEM and multidrug-resistant (MDR) P-glycoprotein (P-gp)-over-expressing CEM/ADR5000 leukemic cells were kindly provided by Prof. Axel Sauerbrey (Department of Pediatrics, University of Jena, Germany). Cells were cultured in RPMA1640 medium including 10% fetal bovine serum (FBS) and 1% penicillin (1000 U/mL)/streptomycin (100 µg/mL) (Life Technologies, Darmstadt, Germany). Doxorubicin (5000 ng/mL) was added to maintain overexpression of P-gp (MDR1 and ABCB1) in CEM/ADR5000 cells. Doxorubicin was obtained from the University Pharmacy of the University Medical Center Mainz. CEM/ADR5000 cells display a more than 1000-fold resistance to doxorubicin [27] and are therefore a suitable model to identify novel drugs without or very low cross-resistance.
(§2) The cytotoxic effects of the compounds solved in DMSO (Sigma-Aldrich, Taufkirchen, Germany) were tested by the resazurin assay. This assay is based on reduction of the indicator dye, resazurin, to the highly fluorescent resorufin by viable cells. Cells lethally damaged by cytotoxic compounds rapidly lose the enzymatic capability to reduce non-fluorescent resazurin to the highly fluorescent resorufin. As the reductive potential happens in a dose-dependent manner, this chemical reaction can be exploited to quantitatively determine the cytotoxic potential of investigational compounds and to measure dose-response relationships. With increasing concentrations of a cytotoxic drug, the fluorescence signal fades out. Aliquots of 10,000 cells/100 µL cells were seeded into 96-well plates (Thermo-Scientific, Dreieich, Germany) and immediately treated with various concentrations of each compound. After 72 h incubation at 37 °C, 20 µL resazurin 0.01% w/v solution (Invitrogen, Dreieich, Germany) were added to each well, and the plates were maintained at 37 °C for 4 h. Fluorescence was measuring by an Infinite M2000 Proplate reader (Tecan, Crailsheim, Germany) with an excitation wavelength of 544 nm and an emission wavelength of 590 nm. Each experiment was done at least three times with six replicates each. The viability was analyzed in comparison with untreated cells. […] It is a well-established measure to determine the cytotoxic potential of anticancer drugs. The IC50 values were calculated from a calibration curve by linear regression using Microsoft Excel.

[2] = target: T1, trypsin-like (T-L) activity of human 20S proteasome (Homo sapiens, UniProt Q99436); experiment: Inhibition of trypsin-like activity of 20S proteasome (Boc-Leu-Arg-Arg-AMC); type: biochemical; details: for IC50: 10 min, no pre-incubation, 30 °C; for T-L inhibition at 10 µM: over 10 min
T1 construct: 20S proteasome, isolated and purified from human erythrocytes; purchased Biomol GmbH, Hamburg, Germany; host or cells: human erythrocytes (native complex)
Description: 20S proteasome, isolated and purified from human erythrocytes, was obtained from a commercial source (Biomol GmbH, Hamburg, Germany), as well as the peptidic substrates (Bachem, Bubendorf, Switzerland) Suc-Leu-Leu-Val-Tyr-AMC, Boc-Leu-Arg-Arg-AMC and Cbz-Leu-Leu-Glu-AMC for ChT-L, T-L and PGPH (C-L) activity of the enzyme, respectively. The three distinct proteolytic activities of the 20S proteasome were measured by monitoring the hydrolysis of the substrates and detecting the fluorescence of the common product released, i.e., 7-amino-4-methyl coumarin (7-AMC), by means of an Infinite 200 PRO microplate reader (Tecan, Männedorf, Switzerland) at 30 °C with a 380-nm excitation filter and a 460-nm emission filter. All gold and silver complexes were tested against the three proteolytic activities of the 20S proteasome and against Cat-B, Cat-L and bovine pancreatic α-chymotrypsin at 10 µM concentrations over a period of 10 min using an equivalent amount of DMSO as a negative control. […] The IC50 values were calculated with the program GraFit® using the two-parameter equation. More detailed experimental protocols for the assays against each proteolytic activity of the 20S proteasome, as well as against bovine pancreatic α-chymotrypsin, are already reported elsewhere (see also Supplementary Materials). Cat-B and Cat-L were purchased from Calbiochem, Darmstadt, Germany, and the related assays were performed as previously described. The employed fluorogenic substrate for both cysteine proteases was Cbz-Phe-Arg-AMC (80 µM for Cat-B; 5 µM for Cat-L). […]
Inhibition assay for the Tryptic Activity of the 20S Proteasome
mg∙mL−1 with the test compound present at 10 µM (screening assay) or at variable
concentrations (continuous assay). The reaction buffer consisted of 50 mM Tris buffer pH
substrate hydrolysis ([…]) was monitored continuously over a period of 10 min. […]

CEM/ADR5000 cells = experiment: Resazurin cytotoxicity assay, multidrug-resistant CEM/ADR5000 leukemia cells; type: cell-based, human; details: for IC50: cell growth, resazurin assay, 72 h incubation, IC50 ± SD, n = 3; for Degree of Resistance: ratio of IC50 of CEM/ADR5000 cells divided by IC50 of CCRF-CEM cells
Description: as §1, §2

CC[PH](CC)(CC)[Ag][Br] [Ag(PEt3)Br]
Cat-L Inhibition (%) at 10 µM [1]: n.i. | IC50 (CCRF-CEM cells): 1500 ± 100 nM | IC50 [2]: 2650 ± 150 nM | IC50 (CEM/ADR5000 cells): 3890 ± 700 nM | Degree of Resistance (CEM/ADR5000 cells): 2.59

CC[PH](CC)(CC)[Ag][Cl] [Ag(PEt3)Cl]
Cat-L Inhibition (%) at 10 µM [1]: n.i. | IC50 (CCRF-CEM cells): 1360 ± 250 nM | IC50 [2]: 2200 ± 1300 nM | IC50 (CEM/ADR5000 cells): 2640 ± 480 nM | Degree of Resistance (CEM/ADR5000 cells): 1.94

CC[PH](CC)(CC)[Ag][I] [Ag(PEt3)I]
Cat-L Inhibition (%) at 10 µM [1]: n.i. | IC50 (CCRF-CEM cells): 1280 ± 120 nM | IC50 [2]: 2270 ± 780 nM | IC50 (CEM/ADR5000 cells): 1460 ± 150 nM | Degree of Resistance (CEM/ADR5000 cells): 1.14

CCP(CC)CC.[Br][Au] [Au(PEt3)Br]
Cat-L Inhibition (%) at 10 µM [1]: n.i. | IC50 (CCRF-CEM cells): 280 ± 60 nM | IC50 [2]: 1260 ± 120 nM | IC50 (CEM/ADR5000 cells): 270 ± 50 nM | Degree of Resistance (CEM/ADR5000 cells): 0.96

CCP(CC)CC.[Au+].[Cl-] [Au(PEt3)Cl]
Cat-L Inhibition (%) at 10 µM [1]: n.i. | IC50 (CCRF-CEM cells): 350 ± 30 nM | IC50 [2]: 1250 ± 50 nM | IC50 (CEM/ADR5000 cells): 260 ± 40 nM | Degree of Resistance (CEM/ADR5000 cells): 0.74

CC[P](CC)(CC)[Au][I] [Au(PEt3)I]
Cat-L Inhibition (%) at 10 µM [1]: n.i. | IC50 (CCRF-CEM cells): 320 ± 70 nM | IC50 [2]: 5800 ± 300 nM | IC50 (CEM/ADR5000 cells): 280 ± 80 nM | Degree of Resistance (CEM/ADR5000 cells): 0.87

CCP(CC)CC.CCP(CC)CC.O=[N+]([O-])[O-].[Ag+] [[Ag(PEt3)2]NO3]
Cat-L Inhibition (%) at 10 µM [1]: 20 ± 0.4% | T-L inhibition at 10 µM [2]: n.i. | Degree of Resistance (CEM/ADR5000 cells): 3.05

CC(=O)OC[C@H]1O[C@@H]([S-])[C@H](OC(C)=O)[C@@H](OC(C)=O)[C@@H]1OC(C)=O.CCP(CC)CC.[Au+] [auranofin, Auranofin]
Cat-L Inhibition (%) at 10 µM [1]: n.i. | IC50 (CCRF-CEM cells): 220 ± 80 nM | T-L inhibition at 10 µM [2]: n.i. | IC50 (CEM/ADR5000 cells): 280 ± 60 nM | Degree of Resistance (CEM/ADR5000 cells): 1.27
